# Data reported in patent publication US6946467B2, “Serine protease inhibitors” (Eli Lilly and Company, priority 2000, dated 2005).
# Where a name gives a salt, the structure may show the parent alone.
row,SMILES,melting point
1,Cl.O=C(N[C@@H](C(=O)N1CCN(CCc2nccs2)CC1)c1ccccc1)c1ccc2cc[nH]c2c1,135 to 142 °C (dec.)
2,Cl.N#Cc1cc(CCN2CCN(C(=O)[C@H](NC(=O)c3ccc4cc[nH]c4c3)c3ccccc3)CC2)ccn1,156 to 169 °C
3,"COc1ccc(C(=O)N[C@@H](C(=O)N2CCN(CCC3CCCC3)CC2)c2ccccc2)cc1 (as salt: hydrochloride) [Example 30, 1-(4-Methoxybenzoyl-D-phenylglycinyl)-4-(2-cyclopentylethyl)piperazine]",190 to 192 °C
4,"O=C(N[C@@H](C(=O)N1CCN(CCc2ccncc2F)CC1)c1ccccc1)c1ccc2cc[nH]c2c1 [Example 58a, 1-[Indole-6-carbonyl-D-phenylglycinyl]-4-[2-(3-fluoropyridin-4-yl)ethyl]piperazine]",135 to 145 °C (dec.)
